Test results from patent US11513109B2, “Biological toxicity test method for evaluating the ecological safety of advanced oxidation processes” (priority 2018, dated 2022).

Test system: Koi (Cyprinus carpio haematopterus)
Experiment: Koi exposure toxicity test: liver homogenate antioxidative enzyme activity (SOD, CAT, GPx)
Type: in vivo
Settings: experimental group 1 vs blank group
Method: Still further, four groups of identical experimental pools are established in S2. Each group of experimental pools is provided with 3 parallel groups. The size of each experimental pool is unified to 30 L. The water temperature of the experimental pool is 18° C. to 22° C. Each experimental pool is provided with an aerator. The first group of the experimental pools is the waste water control group, the second group is the waste water group, the third group is the tap water control group, and the fourth group is the tap water blank group. The four groups of experimental pools have same conditions except the addition of different water quality. 25 L of raw waste water, experimental waste water, control tap water, and blank tap water are sequentially added to the experimental pool of the waste water control group, the waste water experimental group, the tap water control group, and the […].
Still further, 20 selected Koi are put into each experimental pool in S3 for exposure to poison. The Koi used in the test are those domesticated with tap water and not poisoned by the contaminants. The duration of exposure is 96 h-110 h. During the period of exposure, half water is changed every day with water of same quality to maintain the water quality in a stable condition.
Further, the method in S4 is specifically: the Koi after exposure to poison in each group is dissected and liver is extracted, chopped, and formulated into a homogenate with the liver tissue and physiological saline according to weight (g): volume (mL)=1:9 and the activity of antioxidative enzymes in the homogenate is determined.
Still further, the antioxidative enzyme determined in S4 comprises superoxide dismutase, catalase, and glutathione peroxidase.
Still further, the biological indicators such as the determined enzyme activity described in S4 are determined using a kit, and 5 parallel group assays are set for each sample group.
S1: the waste water to be determined was collected (prepared), […]. […]

OO [H2O2]
produces oxidative stress: oxidative stress on the koi (SOD higher, GPx lower than blank group, not significant) (Example 1, oxidant in UV/H2O2) | oxidative stress on the Koi (SOD higher, GPx lower than blank group, not significant) (Example 3, oxidant in the ozone combined oxidation process) | oxidative stress on the Koi (SOD higher, GPx lower than blank group, not significant) (Example 4, oxidant in the wet oxidation process)
